# According to PMC11277018, “Recombinant Expression and Characterization of a Novel Thermo-Alkaline Lipase with Increased Solvent Stability from the Antarctic Thermophilic Bacterium Geobacillus sp. ID17” (International Journal of Molecular Sciences, 2024):
# Where two headings read alike, the source gives them in different places.
# System: T1, Lip7
# T1 construct: theoretical 43 kDa, 47 kDa by SEC, 37 kDa by SDS-PAGE; monomer
# Assay: spectrophotometric p-nitrophenol release, allosteric sigmoidal fit
# Type: biochemical, Geobacillus sp. ID17
# Details: 25 °C, pH 8.0, 50 mM potassium phosphate, read-out: K1/2
# Source text: spectrophotometric p-nitrophenol release, allosteric sigmoidal fit on Lip7
smiles,measurement,setting,value
CCCCCCCCCC(=O)Oc1ccc([N+](=O)[O-])cc1 [p-nitrophenyl decanoate],Km,"2% (v/v) Triton X-100, Hill n 3.1 ± 1.4",2200 ± 300 µM
CCCCCCCCCCCCCC(=O)Oc1ccc([N+](=O)[O-])cc1 [p-nitrophenyl myristate],Km,"2% (v/v) Triton X-100, Hill n 3.2 ± 0.6",1400 ± 100 µM
CCCCCCCCCCCC(=O)Oc1ccc([N+](=O)[O-])cc1 [p-nitrophenyl laurate],Km,"2% (v/v) Triton X-100 (mixed micelles; interfacial), Hill n 1.8 ± 0.4",1700 ± 400 µM
CC(=O)Oc1ccc([N+](=O)[O-])cc1 [p-nitrophenyl acetate],Km,"2% (v/v) Triton X-100, Hill n 1.9 ± 0.5",3400 ± 700 µM
CCCCCCCC(=O)Oc1ccc([N+](=O)[O-])cc1 [p-nitrophenyl octanoate],Km,"2% (v/v) Triton X-100, Hill n 2.4 ± 0.8",1600 ± 300 µM
